Test results as given in paper PMC9359617 (Nature structural & molecular biology, 2022).
Read-outs that look alike come from different tables or passages of the source.

Legend:
CaChs2 [1] = target: T1, CaChs2 (Candida albicans, UniProt P30572); assay: CaChs2 activity assay; format: biochemical; conditions: purified recombinant CaChs2; formation of water-insoluble chitin polymers from UDP-GlcNAc
T1 sequence (P30572 1-1009): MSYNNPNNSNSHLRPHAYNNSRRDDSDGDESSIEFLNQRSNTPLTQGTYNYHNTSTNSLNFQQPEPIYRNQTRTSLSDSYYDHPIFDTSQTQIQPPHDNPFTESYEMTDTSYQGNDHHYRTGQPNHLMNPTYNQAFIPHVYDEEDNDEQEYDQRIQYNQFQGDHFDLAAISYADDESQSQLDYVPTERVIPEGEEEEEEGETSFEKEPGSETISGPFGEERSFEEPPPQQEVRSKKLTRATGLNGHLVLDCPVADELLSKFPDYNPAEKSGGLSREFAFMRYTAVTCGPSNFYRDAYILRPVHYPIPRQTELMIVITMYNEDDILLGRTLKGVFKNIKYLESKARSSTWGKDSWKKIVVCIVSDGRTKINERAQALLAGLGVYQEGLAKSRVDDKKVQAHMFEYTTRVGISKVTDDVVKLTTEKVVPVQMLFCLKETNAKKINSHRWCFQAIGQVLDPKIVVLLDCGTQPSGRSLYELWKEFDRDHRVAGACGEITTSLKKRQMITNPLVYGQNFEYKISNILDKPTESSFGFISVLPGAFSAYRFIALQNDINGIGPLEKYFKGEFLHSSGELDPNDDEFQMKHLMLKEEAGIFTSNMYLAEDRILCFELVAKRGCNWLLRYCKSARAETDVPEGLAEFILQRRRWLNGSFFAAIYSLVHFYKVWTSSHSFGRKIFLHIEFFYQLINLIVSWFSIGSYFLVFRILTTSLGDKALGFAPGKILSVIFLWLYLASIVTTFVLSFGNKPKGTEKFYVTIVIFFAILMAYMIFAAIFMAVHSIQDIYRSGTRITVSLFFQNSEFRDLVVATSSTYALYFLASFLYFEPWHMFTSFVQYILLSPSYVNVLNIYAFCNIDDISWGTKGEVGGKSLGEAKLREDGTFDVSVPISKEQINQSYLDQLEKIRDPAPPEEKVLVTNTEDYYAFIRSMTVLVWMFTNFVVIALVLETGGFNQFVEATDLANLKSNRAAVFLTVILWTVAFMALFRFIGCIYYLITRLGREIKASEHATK

CaChs2 [2] = target: T1, CaChs2; assay: CaChs2 inhibition assay; format: biochemical
CaChs2 WT = CaChs2 WT (Candida albicans, UniProt P30572); assay: Isothermal titration calorimetry, CaChs2 WT; format: binding
CaChs2 W647A = assay: Isothermal titration calorimetry, CaChs2 W647A; format: binding, Candida albicans; conditions: ITC
CaChs2 Q643A = CaChs2 Q643A (Candida albicans, UniProt P30572, Q643A); assay: Isothermal titration calorimetry, CaChs2 Q643A; format: binding; conditions: Q643A mutant, ITC
C. albicans = conditions: against C. albicans; lower end printed as < 0.5; cited from earlier work
CaChs2 T631A = assay: CaChs2 inhibition assay, T631A mutant; format: biochemical, Candida albicans; conditions: alanine mutation of T631
cryo-EM structure = target: the molecule itself; assay: cryo-EM structure

`CC(=O)N[C@H]1[C@@H](OP(=O)(O)OP(=O)(O)OC[C@H]2O[C@@H](n3ccc(=O)[nH]c3=O)[C@H](O)[C@@H]2O)O[C@H](CO)[C@@H](O)[C@@H]1O` [UDP-GlcNAc] showed a Km (CaChs2 [1]) of 6 ± 0.7 mM and a kcat (CaChs2 [1]) of 8.6 ± 2.7 min−[1].

In the case of `C[C@@H]([C@H](N)C(=O)N[C@H](C(=O)O)[C@H]1O[C@@H](n2ccc(=O)[nH]c2=O)[C@H](O)[C@@H]1O)[C@H](O)c1ccc(O)cn1` [nikkomycin Z], the Ki (CaChs2 [2]) is reported as 1500 ± 500 nM, the “difference between Ki of the inhibitor and Km of UDP-GlcNAc” value (CaChs2 [2]; affinity of nikkomycin Z to CaChs2 compared with UDP-GlcNAc) is reported as “three orders of magnitude” and the Kd (CaChs2 WT) is reported as roughly 190 nM. The “reduction of affinity to nikkomycin Z, mutant vs WT” value (CaChs2 W647A) was “about 18 fold”, the “effect of the mutation on affinity to nikkomycin Z” value (CaChs2 Q643A) was “only moderately affects the affinity” and the MIC80 (C. albicans) was 0.5 to 32 µg/mL.

For `NC(=O)OC[C@H](O)[C@@H](O)[C@H](N)C(=O)N[C@H](C(=O)O)[C@H]1O[C@@H](n2cc(C(=O)O)c(=O)[nH]c2=O)[C@H](O)[C@@H]1O` [polyoxin D], the Ki (CaChs2 [2]; purified CaChs2) was 3200 ± 1400 nM and the “decrease of affinity for polyoxin D, mutant vs WT” value (CaChs2 T631A) was “about threefold”.

B1: Chs2 from Candida albicans (CaChs2), wild type (enzyme, UniProt P30572 1-1009, looked up)
chain: MSYNNPNNSNSHLRPHAYNNSRRDDSDGDESSIEFLNQRSNTPLTQGTYNYHNTSTNSLNFQQPEPIYRNQTRTSLSDSYYDHPIFDTSQTQIQPPHDNPFTESYEMTDTSYQGNDHHYRTGQPNHLMNPTYNQAFIPHVYDEEDNDEQEYDQRIQYNQFQGDHFDLAAISYADDESQSQLDYVPTERVIPEGEEEEEEGETSFEKEPGSETISGPFGEERSFEEPPPQQEVRSKKLTRATGLNGHLVLDCPVADELLSKFPDYNPAEKSGGLSREFAFMRYTAVTCGPSNFYRDAYILRPVHYPIPRQTELMIVITMYNEDDILLGRTLKGVFKNIKYLESKARSSTWGKDSWKKIVVCIVSDGRTKINERAQALLAGLGVYQEGLAKSRVDDKKVQAHMFEYTTRVGISKVTDDVVKLTTEKVVPVQMLFCLKETNAKKINSHRWCFQAIGQVLDPKIVVLLDCGTQPSGRSLYELWKEFDRDHRVAGACGEITTSLKKRQMITNPLVYGQNFEYKISNILDKPTESSFGFISVLPGAFSAYRFIALQNDINGIGPLEKYFKGEFLHSSGELDPNDDEFQMKHLMLKEEAGIFTSNMYLAEDRILCFELVAKRGCNWLLRYCKSARAETDVPEGLAEFILQRRRWLNGSFFAAIYSLVHFYKVWTSSHSFGRKIFLHIEFFYQLINLIVSWFSIGSYFLVFRILTTSLGDKALGFAPGKILSVIFLWLYLASIVTTFVLSFGNKPKGTEKFYVTIVIFFAILMAYMIFAAIFMAVHSIQDIYRSGTRITVSLFFQNSEFRDLVVATSSTYALYFLASFLYFEPWHMFTSFVQYILLSPSYVNVLNIYAFCNIDDISWGTKGEVGGKSLGEAKLREDGTFDVSVPISKEQINQSYLDQLEKIRDPAPPEEKVLVTNTEDYYAFIRSMTVLVWMFTNFVVIALVLETGGFNQFVEATDLANLKSNRAAVFLTVILWTVAFMALFRFIGCIYYLITRLGREIKASEHATK
For B1, the “stoichiometry N” value (cryo-EM structure) was 2.
